Measured values reported in the METLIN SMRT retention time set (Domingo-Almenara et al. 2019).

Experiment: gradient 5% acetonitrile 3 min, to 50% in 2 min, to 85% in 15 min, held 3 min, 100 µL/min
Settings: column: Zorbax Extend-C18 2.1 x 50 mm; eluents: water / acetonitrile, 0.1% formic acid
How it was run: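 Retention times of pure standards were taken from adduct peaks that were selected by computer and manually inspected. Over 3 months, mixtures of ~100 molecules were run by HPLC–quadrupole time-of-flight mass spectrometry in positive and negative ionization mode. The Zorbax Extend-C18 column (2.1 × 50 mm, 1.8 μm) ran at 100 μL/min in water and acetonitrile, each containing 0.1% formic acid, with 40 μL dead volume and 900 μL dwell volume.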

SMILES	RP-LC retention time [s]
Cc1cc(C)nc(Nc2nc3ccccc3[nH]2)n1	615
CCCCNC(=O)C1CCCN(c2nnc(C)c3c(C)n(-c4ccc(Cl)cc4)nc23)C1 (stereo not given)	746
COc1ccc(OC)c(Nc2c(-c3ccc(Br)cc3)nc3cnccn23)c1	1000
O=C(Cc1csc2nc(-c3ccccc3)cn12)NCc1ccc(Br)cc1	815
Cc1cc2c(cc1S(=O)(=O)N1CCCC1C(=O)Nc1ccccc1F)OC(C)C(=O)N2 (stereo not given)	809
CSc1nc2ccc3nc(NC(=O)C4=COCCO4)sc3c2s1	905
NS(=O)(=O)c1ccc(CCNC(=O)c2coc(NC(=O)c3cccs3)n2)cc1	603
COc1ccc(C)cc1NC(=O)C1CC(=O)N(c2ccc3c(c2)CCN3C(=O)C2CC2)C1 (stereo not given)	836
NC(=O)c1cc(-c2ccccc2)sc1NC(=O)c1cc(Cl)sc1Cl	1180
CC(=O)N1CCc2cc(N3CC(C(=O)NCc4ccccc4C)CC3=O)ccc21 (stereo not given)	707
NC(=O)C1CCN(C(=O)CN2c3ccccc3NC3=C(C(=O)CCC3)C2c2cccs2)CC1 (stereo not given)	630
C=CCn1c(-c2ccc([N+](=O)[O-])cc2)nc2nc3ccccc3nc21	825
O=C(Cn1nc2c(N3CCCCCC3)nccn2c1=O)Nc1ccccc1F	682
COC(=O)c1ccc(NC(=O)N(Cc2cc(=O)[nH]c3ccccc23)CC(C)C)cc1	830
CC1(C(=O)NCc2ccc(F)cc2)CCN(S(=O)(=O)c2ccc(Br)s2)CC1	1010
Cc1cc(-c2c(C)sc(C)c2S(=O)(=O)NCc2ccccc2Cl)n[nH]1	1060
CN(CC(=O)N1CCCCC1)S(=O)(=O)c1ccc2c(c1)CCCC(=O)N2	676
Cc1nc2cc(-c3noc(COc4ccc(Cl)cc4)n3)ccc2o1	1060
Cc1ccc(NC(=O)N2CCC(c3nc(CCNC(=O)C(C)C)cs3)CC2)cc1	750
c1cc2c(cc1-c1nnc(C3CC3)o1)OCO2	781
CC(C)NC(=O)c1n[nH]c2c1CCCCCC2	754
Cc1cc2[nH]c(C(=O)NC(C)c3ccccc3)c(CN3CCOCC3)c2s1 (stereo not given)	688
CN(C)S(=O)(=O)c1ccc(-c2nnc(C(=O)NCCCN3CCCC3=O)o2)cc1	655

SMILES	RP-LC retention time [s]
CC(C)CC(=O)Nc1ccc2nc(N3CCN(Cc4ccccc4F)CC3)cc(C(=O)O)c2c1	603
Cc1cccc(OCC(=O)Nc2nnc(C3CC(=O)N(c4ccccc4)C3)o2)c1C (stereo not given)	726
CN1CCn2cc(S(=O)(=O)Nc3ccc(F)cc3Cl)cc2C1=O	690
O=S(=O)(c1cccn2c(SCc3cccc(F)c3)nnc12)N1CCCC1	831
COc1cccc(CNC(=O)Cn2ccc3ccc(N4CCOCC4)nc32)c1	858
Cc1cnc(C2CC2)n1C1CCN(S(=O)(=O)c2ccc(C#N)cc2)CC1	660
COC(=O)Nc1ccc(-c2nc(N3CCOCC3)c3cnn(C4CCN(Cc5cccnc5)CC4)c3n2)cc1	665
O=C(CN1C(=O)CCSc2ccccc21)Nc1ccc2c(c1)OCO2	627
COc1cccc(-c2nc(C3CCN(S(=O)(=O)c4c(C)cc(C)cc4C)CC3)no2)c1	1320
COc1cc(=O)n2c(c1C(=O)Nc1ccc(Br)c(C)c1)CCCC2	833
O=c1ccc(-c2ccccc2)nn1Cc1nc(-c2ccccc2Cl)no1	976
Cc1ccc(CNc2c(-c3ccc(N(C)C)cc3)nc3ncccn23)cc1	889
COc1cc(OC)c(NC(=O)Cn2ccc3sccc3c2=O)cc1Cl	775
O=C(Cn1nc2c(N3CCSCC3)nccn2c1=O)NCCC1=CCCCC1	861
O=C(NCc1ccco1)c1c2c(nc3ccccc13)C(=O)N(C1CCCCC1)C2	808
Cn1ncc2c3ccccc3n(CC(=O)NCCC3=CCCCC3)c2c1=O	904
Cc1cc(C)c(S(=O)(=O)N2CCc3nc(-c4ccccc4)ncc3C2)cc1C	1230
CC(NC(=O)c1ccsc1)C(=O)Nc1nc2ccccc2[nH]1 (stereo not given)	609
Cn1nccc1-c1cccc(-c2noc(-c3ccccc3Br)n2)c1	1180
CCOc1ccccc1-c1noc(Cn2c(=O)n(C(C)C)c(=O)c3ccccc32)n1	1090
CC1CCN(c2cc(-c3noc(C(=O)NCCC4=CCCCC4)n3)ccn2)CC1	1100
Cn1c(=O)c(-c2ccc(C(=O)NCc3ccc4c(c3)OCO4)cc2)nc2cccnc21	872
CCc1nc2cc(N3CCCC(C(=O)O)C3)cnc2nc1CC (stereo not given)	693

SMILES	RP-LC retention time [s]
CCn1cc(C)c(C(=O)O)c1CC(=O)N1CCN(C2CCCCC2)CC1	597
CCc1noc(NC(C)=O)c1-c1ccc(C)c(S(=O)(=O)N2CCN(c3ccc(OC)cc3)CC2)c1	919
CC(C)NC(=O)C1Cn2cccc2C(=O)N1 (stereo not given)	578
COc1ccc(NC(=O)Cn2nc(N3CCSCC3)c3ccccc3c2=O)cc1Cl	949
Cc1nnc2ccc(S(=O)(=O)Nc3cccc(Cl)c3)cn12	724
COc1cc(C2OC(c3cccnc3)=NN2C(C)=O)cc(OC)c1OC (stereo not given)	700
COc1ccccc1NC(=O)C1=C(C)NC(=O)NC1c1cccs1 (stereo not given)	665
COc1ccc2[nH]cc(CCNC(=O)c3ccc(SC)cc3OC)c2c1	865
Cc1oc(C2CCN(S(=O)(=O)c3cccc(C#N)c3)CC2)nc1C(=O)N(C)C	751
Cc1ccc(-c2noc(Cc3nnc(-c4cc(C)cc(C)c4)o3)n2)cc1	1190
N#Cc1ccc(-c2cnc3[nH]cc(NC(=O)c4cccnc4)c3c2)cc1	738
Cc1nn(C)c(C)c1S(=O)(=O)N1CCC2(CC1)C(=O)N(C(C)C)C2c1ccccc1 (stereo not given)	837
CCCN1C(=O)COc2ccc(-c3noc(CCc4c[nH]c5ccccc45)n3)cc21	1110
CCC(=O)N1CCC(COc2ccc(C(=O)NC(C)C)cc2)CC1	719
CCc1ccc(NC(=O)c2c(C)sc3ncnc(N4CCCC4)c23)cc1	975
Cc1cc(Cl)ccc1S(=O)(=O)N1CCC2(CC1)NCCCN=C2NC1CCCC1	810
O=C(Cc1csc2nc(-c3ccccc3)cn12)N1CCN(c2ccccc2F)CC1	869
CC1CCCCN1CCNC(=O)CCC(=O)N1CCc2c(c(C(=O)N3CCCCC3)nn2C)C1 (stereo not given)	585
O=C(NCc1ccccc1)C1CCCCN1S(=O)(=O)c1ccc(F)cc1 (stereo not given)	940
C=CCN1C(=O)COc2ccc(-c3nc(NC(=O)CCC4CCCCC4)sc3C)cc21	1220
COc1ccc(-c2nnc(-c3cccc(S(=O)(=O)N4CCCCC4)c3)o2)cc1	1060
Cc1ccc2c(c1)N(Cc1ccc(F)cc1)N=C(C(=O)N1CCCC1)S2(=O)=O	889
CC1CCC2(CC1)NC(=O)N(CC(=O)NCc1ccccc1Cl)C2=O (stereo not given)	790

SMILES	RP-LC retention time [s]
Cc1nnc(-c2nnc(NCc3ccccc3Cl)c3ccccc23)o1	909
O=c1ccn(-c2cccc(F)c2)nc1-c1nc(-c2ccc3c(c2)OCO3)no1	846
COC(=O)CNC(c1ccccc1)c1cc(C)ccc1NS(=O)(=O)c1ccc(C)cc1 (stereo not given)	904
CCNc1cc(N2CCC(CCC(=O)NCC(C)C)CC2)ncn1	602
CCCNC(=O)Nc1ccc(NC(=O)N2CCCC(C(=O)NC3CCCCC3)C2)cc1 (stereo not given)	702
O=C(NCC(c1ccccc1)c1c[nH]c2ccccc12)NC1CCCCC1 (stereo not given)	976
CCC(=O)N1CCC(Oc2nccnc2N(C)C)C1 (stereo not given)	616
O=C1COc2cc(S(=O)(=O)N3CCC(C(=O)N4CCc5ccccc5C4)CC3)c(Cl)cc2N1	838
O=C(Nc1cc(Cl)ccc1F)c1cnc(-c2ccc(F)cc2)nc1-c1ccncc1	1050
CCOc1ccc(-c2csc3c(=O)n(Cc4ccncc4)cnc23)cc1OCC	693
CCN1C(=O)CN(C(=O)c2ccsc2)CC12CCOCC2	621
CCN1C(=O)c2cc(C(=O)Nc3ccc(C)cc3)nn2CC1(C)C(=O)NC1CCCC1 (stereo not given)	807
Cc1ccc(N2CCC(NC(=O)c3ccc(Cl)s3)C2=O)cc1 (stereo not given)	888
CCS(=O)(=O)N1CC(=O)N(c2cc(C)ccc2C)C(C)(C(=O)NCc2ccc(F)cc2)C1 (stereo not given)	861
Cc1nc(C(=O)Nc2ccc(F)cc2Cl)c(C)o1	1040
Cc1noc(C2CN(C(=O)Nc3cc(F)ccc3F)CC23CCOCC3)n1 (stereo not given)	733
COc1ccc(CN2CCC3(CC2)CC(C)(O)CCO3)cc1C (stereo not given)	629
N#Cc1cccc(S(=O)(=O)NC2CCc3nn(CC4CC4)c(=O)n3CC2)c1 (stereo not given)	706
O=C(Nc1ccc(F)cc1Br)c1cnc(-c2ccccc2)nc1-c1ccncc1	935
Cc1nc(-c2cc(S(=O)(=O)NCCN3CCC(C)CC3)c(C)s2)sc1C	718
CN1C2CCCC1CC(NC(=O)c1nn(C)c3ccccc13)C2 (stereo not given)	640
